Laboratory results from publication PMC7501296, “Rapid and direct control of target protein levels with VHL-recruiting dTAG molecules” (Nature Communications, 2020).
Several values for one entry are separate records, joined by “and”; a condition that tells them apart may be missing. Identical values can stand only once.

Assays:
[1] = system: PATU-8902 LACZ-FKBP12^F36V clone; assay: Antiproliferation, PATU-8902 LACZ-FKBP12F36V clone, 2D-monolayer (CellTiter-Glo); format: cell-based
Outline: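 Viability of cells grown as 2D-adherent monolayers was determined with the CellTiter-Glo luminescent reagent (Promega). Luminescence signals were read on either an Envision 2104 plate reader (PerkinElmer) or a Fluostar Omega Reader (BMG Labtech), and the resulting data were processed and analyzed in GraphPad PRISM v8 software.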

[2] = system: PATU-8902 LACZ-FKBP12^F36V clone; assay: Quantitative MS proteomics, PATU-8902 LACZ-FKBP12F36V clone; format: cell-based, Homo sapiens; details: for TMT intensity per TMT channel: PATU-8902 LACZ-FKBP12F36V samples, biological replicates; for log2 (Fold change) compared to DMSO: 500 nM, 4 h
Method: Cell pellets from PATU-8902 and EWS502 cells were lysed using 8 M urea, 200 mM 4-(2-hydroxyethyl)-1-piperazinepropanesulfonic acid (EPPS) at pH 8.5 with protease inhibitors. Samples were further homogenized and DNA was sheered via sonication using a probe sonicator (20 × 0.5 s pulses; level 3). Total protein was determined using a BCA assay and stored at −80 °C until future use. A total of 100 µg of protein was aliquoted for each condition and TMT channel for further downstream processing. Protein extracts were reduced using 10 mM dithiothreitol (DTT) for 30 min at room temperature. Next, samples were alkylated with 20 mM iodoacetamide for 45 min in the dark at room temperature. To facilitate the removal of incompatible reagents, proteins were precipitated using chloroform methanol. Briefly, to 100 µL of each sample, 400 µL of methanol was added, followed by 100 µL of chloroform with thorough vortexing. Next, 300 µL of HPLC grade water was added and samples were vortexed thoroughly. Each sample was centrifuged at 14,000 × g for 5 min at room temperature. The upper aqueous layer was removed and the protein pellet was washed twice with methanol and centrifuged at 14,000 × g for 5 min at room temperature. Protein pellets were resolubilized in 200 mM EPPS buffer and digested overnight with Lys-C (1:100, enzyme:protein ratio) at room temperature. The next day, trypsin (1:100 ratio) was added and incubated at 37 °C for an additional 6 h in a ThermoMixer set to 1000 RPM.
To each digested sample, 30% anhydrous acetonitrile was added and 100 µg of peptides were labeled using 200 µg of TMT reagent (TMT1-TMT11). Following labeling, a 5% hydroxylamine solution was used to quench excess TMT reagent. To equalize protein loading, a ratio check was performed by pooling 2 µg of each TMT-labeled sample. Samples were pooled and desalted using in-house packed C18 StageTips and analyzed by LC-MS/MS. Normalization factors were calculated from this label check, samples were mixed 1:1 across all TMT channels and desalted using a 100 mg Sep-Pak solid phase extraction cartridge. Eluted pooled peptides were further fractionated with basic-pH reverse-phase (bRP) HPLC using an Agilent 300 extend C18 column and collected into a 96 deep-well plate. Samples were consolidated into 24 fractions, and 12 nonadjacent fraction were desalted using StageTips prior to analyses using LC-MS/MS[35]–[37].
All mass spectrometry data was acquired using an Orbitrap Fusion mass spectrometer in-line with a Proxeon NanoLC-1000 UHPLC system. Peptides were separated using an in-house 100 µm capillary column packed with 40 cm of Accucore 150 resin (2.6 µm, 150 Å) (Thermo Fisher Scientific) using a 180 min LC gradient per fraction. Eluted peptides were acquired using synchronous precursor selection (SPS-MS3) method for TMT quantification. Briefly, MS1 spectra were acquired at 120 K resolving power with a maximum of 50 ms in the Orbitrap. MS2 spectra were acquired by selecting the top ten most abundant features via collisional induced dissociation (CID) in the ion trap using an automatic gain control (AGC) of 15 K, quadrupole isolation width of 0.7 m/z and a maximum ion time of 100 ms. For MS3 acquisition, a synchronous precursor selection of ten fragment ions was acquired with an AGC of 150 K for 150 ms and a normalized collision energy of 55.
All acquired raw data were converted to mzXML using Raw File Reader (v3.0.77). Spectra were processed using Comet (2019.01.5)[39]–[41], search results were filtered using the LDA function MASS Package in R, and data were processed using an in-house informatics pipeline[42]–[44]. Custom code was not developed in this study. Briefly, peptide spectral libraries were first filtered to a peptide false discovery rate (FDR) of less than 1% using linear discriminant analysis employing a target decoy strategy. […]

[3] = system: PATU-8902 FKBP12^F36V-KRAS^G12V; KRAS^-/- clone; assay: Antiproliferation, PATU-8902 FKBP12F36V-KRASG12V; KRAS-/- clone, 3D-spheroid (CellTiter-Glo); format: cell-based; details: FKBP12F36V-KRASG12V, KRAS-/-, 3D-spheroid, 120 h
Outline: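 Viability of cells grown as ultra-low adherent 3D-spheroids was determined with CellTiter-Glo (Promega). Luminescence readings were taken on an Envision 2104 plate reader (PerkinElmer) and a Fluostar Omega Reader (BMG Labtech), and the resulting data were processed in GraphPad PRISM v8 to assess effects on cell proliferation.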

CCC(C(=O)N1CCCCC1C(=O)OC(CCc1ccc(OC)c(OC)c1)c1ccccc1OCC(=O)NCCCCCCC(=O)NC(C(=O)N1CC(O)CC1C(=O)NC(C)c1ccc(-c2scnc2C)cc1)C(C)(C)C)c1cc(OC)c(OC)c(OC)c1 (stereo not drawn) [dTAG^V-1-NEG]
DMSO-normalized antiproliferation ([1]; log10[compound] (M) -5.69897, replicate values): 11.5867 and 14.0973 and 18.4019 and 18.5068
DMSO-normalized antiproliferation ([1]; log10[compound] (M) -6.19897, replicate values): 63.5123 and 73.6517 and 63.5598 and 74.3207
DMSO-normalized antiproliferation ([1]; log10[compound] (M) -6.69897, replicate values): 93.1863 and 113.355 and 96.7633 and 104.117
DMSO-normalized antiproliferation ([1]; log10[compound] (M) -7.19897, replicate values): 100.081 and 106.556 and 105.951 and 130.27
DMSO-normalized antiproliferation ([1]; log10[compound] (M) -7.69897, replicate values): 138.495 and 100.848 and 147.738 and 83.6486
DMSO-normalized antiproliferation ([1]; log10[compound] (M) -8.19897, replicate values): 143.617 and 87.8737 and 136.886 and 159.708
DMSO-normalized antiproliferation ([1]; log10[compound] (M) -8.69897, replicate values): 153.483 and 88.4456 and 121.366 and 127.155
DMSO-normalized antiproliferation ([1]; log10[compound] (M) -9.19897, replicate values): 128.036 and 98.5375 and 110.326 and 91.7687
DMSO-normalized antiproliferation ([1]; log10[compound] (M) -9.69897, replicate values): 126.211 and 97.7702 and 97.5063 and 90.8491
DMSO-normalized antiproliferation ([1]; log10[compound] (M) -10.199, replicate values): 118.887 and 87.4707 and 131.584 and 99.1889
TMT intensity per TMT channel ([2]; protein CDK12): 2630.52 and 3108.44 and 2718.26
log2 (Fold change) compared to DMSO ([2]; protein CRY1): -0.9118
TMT intensity per TMT channel ([2]; protein INCENP): 2713.73 and 2977.66 and 2766.34
TMT intensity per TMT channel ([2]; protein IRS2): 358.215 and 458.696 and 391.289
log2 (Fold change) compared to DMSO ([2]; protein LITAF): -0.2196
log2 (Fold change) compared to DMSO ([2]; protein MPRIP): -0.5841
log2 (Fold change) compared to DMSO ([2]; protein RIOX1): 0.1069
log2 (Fold change) compared to DMSO ([2]; protein SGTA): 0.1473
TMT intensity per TMT channel ([2]; protein SLC12A2): 1702.64 and 1563.99 and 1824.49
TMT intensity per TMT channel ([2]; protein SLC15A4): 247.423 and 199.538 and 213.085
DMSO-normalized antiproliferation ([3]; log10[compound] (M) -5.69897, single replicates): 37.3931 and 26.551 and 27.3028 and 28.0546
DMSO-normalized antiproliferation ([3]; log10[compound] (M) -6.19897, single replicates): 78.1886 and 92.1435 and 64.5511 and 70.1475
DMSO-normalized antiproliferation ([3]; log10[compound] (M) -6.69897, single replicates): 103.503 and 85.567 and 103.938 and 98.1965
DMSO-normalized antiproliferation ([3]; log10[compound] (M) -7.19897, single replicates): 124.063 and 123.712 and 110.481 and 131.998
DMSO-normalized antiproliferation ([3]; log10[compound] (M) -7.69897, single replicates): 94.7496 and 116.061 and 121.718 and 128.178
DMSO-normalized antiproliferation ([3]; log10[compound] (M) -8.19897, single replicates): 119.268 and 103.119 and 108.576 and 125.767
DMSO-normalized antiproliferation ([3]; log10[compound] (M) -8.69897, single replicates): 120.883 and 119.814 and 120.521 and 105.703
DMSO-normalized antiproliferation ([3]; log10[compound] (M) -9.19897, single replicates): 102.117 and 92.5221 and 111.366 and 98.8369
DMSO-normalized antiproliferation ([3]; log10[compound] (M) -9.69897, single replicates): 88.1174 and 98.3023 and 99.984 and 124.954
DMSO-normalized antiproliferation ([3]; log10[compound] (M) -10.199, single replicates): 99.0429 and 90.8682 and 97.0717 and 101.855
